The record followed here is ChEMBL document CHEMBL1135952, “Successful bridging from a peptide to a non peptide antagonist at the human tachykinin NK-2 receptor” (Bioorg Med Chem Lett, 2002).

Broadly, the Ki is the equilibrium dissociation constant of an inhibitor or competing ligand from its target. A low value points to tighter binding.

One assay concerns the target T1, Substance-K receptor (Homo sapiens, UniProt P21452).
T1 sequence (P21452 whole entry): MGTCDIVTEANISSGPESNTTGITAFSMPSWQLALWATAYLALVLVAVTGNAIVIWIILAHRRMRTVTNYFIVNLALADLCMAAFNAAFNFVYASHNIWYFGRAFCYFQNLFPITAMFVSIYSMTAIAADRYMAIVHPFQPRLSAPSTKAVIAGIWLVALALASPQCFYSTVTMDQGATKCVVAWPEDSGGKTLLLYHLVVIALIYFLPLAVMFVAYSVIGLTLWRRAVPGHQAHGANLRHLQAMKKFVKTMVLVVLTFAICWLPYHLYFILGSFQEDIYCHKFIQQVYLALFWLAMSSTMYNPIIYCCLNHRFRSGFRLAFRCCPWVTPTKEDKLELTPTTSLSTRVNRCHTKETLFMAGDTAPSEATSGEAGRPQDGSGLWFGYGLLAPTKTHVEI
As to the kind of experiment: Functional affinity was evaluated by measuring the intracellular calcium concentration in CHO cells transfected with the human Tachykinin receptor 2 using Fura-2. It is filed as cell-based. To be noted: read-out: pA2 (converted).
Consider `CN(CCc1c[nH]c2ccccc12)C(=O)c1ccccc1C(=O)N(CCCN1CCSCC1)CCc1c[nH]c2ccccc12`, for which the Kb was 10 nM.

With `O=C(c1ccccc1C(=O)N(CCCN1CCSCC1)CCc1c[nH]c2ccccc12)N(CCCN1CCSCC1)CCc1c[nH]c2ccccc12`, the Kb is 3.98 nM.

A further assay concerns the target T1, Substance-K receptor. As to the kind of experiment: Compound was tested for it's binding affinity against human Tachykinin receptor 2.
Conditions: not given
Consider `CN(CCc1c[nH]c2ccccc12)C(=O)c1ccccc1C(=O)N(CCCN1CCSCC1)CCc1c[nH]c2ccccc12`, for which the Ki was 10 nM.

Consider `O=C(c1ccccc1C(=O)N(CCCN1CCSCC1)CCc1c[nH]c2ccccc12)N(CCCN1CCSCC1)CCc1c[nH]c2ccccc12`, for which affinity was put at a Ki of 3.98 nM.

`CN(C)CCN(C)C(=O)c1nccnc1C(=O)N[C@@H]1CC(=O)N[C@@H](Cc2c[nH]c3ccccc23)C(=O)N[C@@H](Cc2ccccc2)C(=O)N[C@H](Cc2ccccc2)CNC1=O` gave a Ki of 2 nM.

Regarding `O=C(c1ccccc1C(=O)N(CCCN1CCOCC1)CCc1c[nH]c2ccccc12)N(CCCN1CCOCC1)CCc1c[nH]c2ccccc12`, the Ki was 31.6 nM.

`O=C(NCCc1c[nH]c2ccccc12)c1nccnc1C(=O)N(CCCN1CCOCC1)CCc1c[nH]c2ccccc12` showed a Ki of 501 nM.

On to `O=C(c1nccnc1C(=O)N(CCCN1CCOCC1)CCc1c[nH]c2ccccc12)N(CCCN1CCOCC1)CCc1c[nH]c2ccccc12`, for which the Ki was 126 nM.
